Experimental data reported in publication PMC9370031, “Free Linoleic Acid and Oleic Acid Reduce Fat Digestion and Absorption In Vivo as Potent Pancreatic Lipase Inhibitors Derived from Sesame Meal” (Molecules, 2022).
Like-named read-outs stand apart in the source and are kept apart here.

Biological target: T1, porcine pancreatic lipase (Sus scrofa, UniProt P00591)
T1 construct: gene PNLIP
T1 sequence (P00591 1-450): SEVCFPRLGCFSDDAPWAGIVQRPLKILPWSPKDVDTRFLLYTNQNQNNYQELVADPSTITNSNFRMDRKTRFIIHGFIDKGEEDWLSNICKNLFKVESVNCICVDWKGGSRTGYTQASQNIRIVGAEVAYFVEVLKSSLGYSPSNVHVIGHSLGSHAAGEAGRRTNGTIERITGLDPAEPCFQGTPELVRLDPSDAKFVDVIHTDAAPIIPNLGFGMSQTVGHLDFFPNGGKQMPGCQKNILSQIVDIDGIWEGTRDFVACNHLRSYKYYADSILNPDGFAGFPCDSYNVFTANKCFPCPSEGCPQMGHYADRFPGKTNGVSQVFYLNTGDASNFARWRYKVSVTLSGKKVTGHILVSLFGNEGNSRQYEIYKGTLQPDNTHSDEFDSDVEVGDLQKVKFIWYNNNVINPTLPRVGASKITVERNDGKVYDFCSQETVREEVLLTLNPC
Test: colorimetric lipase activity assay (Lipase Kit S, BLAB/DTNB, […] nm) with porcine pancreas lipase Type II
Format: biochemical

Compound	IC50 (read-out: IC50) [µM]	IC50 [µM]
CCCCCCCC/C=C\CCCCCCCC(=O)O [oleic acid]	41.4	–
CCCCC/C=C\C/C=C\CCCCCCCC(=O)O [linoleic acid]	–	82.4
